Assay results taken from ChEMBL document CHEMBL1149710, “Two new alkaloids and active anti-hepatitis B virus constituents from Hypserpa nitida” (Bioorg Med Chem Lett, 2007).

Legend:
Hepatitis B virus [1] = experiment: Antiviral activity against HBV transfected Hep G2.2.15 cells assessed as inhibition of surface antigen HBsAg secretion; assay type: functional, organism-based; settings: HepG2 2.2.15
Hepatitis B virus [2] = experiment: Antiviral activity against HBV transfected Hep G2.2.15 cells assessed as inhibition of e antigen HBsAg secretion; assay type: functional, organism-based; settings: HepG2 2.2.15
[3] = Cytotoxicity against human Hep G2.2.15 cells; assay type: functional; settings: HepG2 2.2.15
[4] = Selectivity index, ratio of CC50 for human Hep G2.2.15 cells to IC50 for HBV e antigen secretion in HBV transfected Hep G2.2.15 cells; assay type: functional
[5] = Selectivity index, ratio of CC50 for human Hep G2.2.15 cells to IC50 for surface antigen HBsAg secretion in HBV transfected Hep G2.2.15 cells; assay type: functional

| IC50 (Hepatitis B virus [1]) | IC50 (Hepatitis B virus [2]) | SMILES | CC50 [3] | Ratio CC50/IC50 [4] | Ratio CC50/IC50 [5] |
| --- | --- | --- | --- | --- | --- |
| 1420 µM | > 2870 µM | CCN(CC)C1=CC(=O)[C@]2([C@@H](Cl)C[C@@]34C(OC)=C(OC)C(=O)C[C@@]23CCN4C)[C@H]1O [HYPSERPANINE A] | 2230 µM | <1 | 1.57 |
| 8 µM | 3690 µM | COc1cc2c3c(c1O)C1(C=CC(=O)C=C1)CC3N(C)CC2 (centres undefined) [GLAZIOVINE] | 7 µM | <1 | <1 |
| > 3680 µM | > 3680 µM | COc1cc2c(cc1O)C[C@H]1c3c(cc(OC)c(O)c3-2)CC[N+]1(C)C [LAURIFOLINE] | > 3680 µM | – | – |
| > 3620 µM | > 3620 µM | COc1ccc2c3c1-c1c(ccc(O)c1O)C[C@@H]3[N+](C)(C)CC2 [HYPSERPANINE B] | > 3620 µM | – | – |
| 11700 µM | 25900 µM | Nc1ccn([C@@H]2CS[C@H](CO)O2)c(=O)n1 [LAMIVUDINE] | 30000 µM | 1.16 | 2.56 |
| 42 µM | > 4180 µM | COc1cc2c3c(c1OC)C1(C=CC(=O)C=C1)C[C@H]3N(C)CC2 [PRONUCIFERINE] | 50 µM | <1 | 1.19 |
| > 2930 µM | > 2930 µM | COC1=CC(=O)[C@]2(CC[C@@]34C(OC)=C(OC)C(=O)C[C@]32CCN4C)[C@@H]1O [DECHLOROACUTUMINE] | 2930 µM | – | – |
| > 4110 µM | > 4110 µM | COc1ccc2c(c1O)-c1c(O)c(OC)cc3c1[C@H](C2)[N+](C)(C)CC3 [MAGNOFLORINE] | > 4110 µM | – | – |

The next lines start with the molecule.

| SMILES | IC50 (Hepatitis B virus [1]) | IC50 (Hepatitis B virus [2]) | CC50 [3] | Ratio CC50/IC50 [4] | Ratio CC50/IC50 [5] |
| --- | --- | --- | --- | --- | --- |
| COC1=CC(=O)[C@@]2([C@@H]1O)[C@@H](Cl)C[C@]13NCC[C@]21CC(=O)C(OC)=C3OC [ACUTUMIDINE] | 2020 µM | > 2890 µM | > 2890 µM | – | >1.31 |
| COC1=CC(=O)[C@]2([C@@H](Cl)C[C@@]34C(OC)=C(OC)C(=O)C[C@@]23CCN4C)[C@H]1O [DAURICUMINE] | 1310 µM | > 3290 µM | 2190 µM | <1 | 1.67 |
| COc1c(O)cc2c(c1OC)C=[N+](C)CC2 [PHENOLBETAIN] | 2370 µM | > 4520 µM | 2180 µM | <1 | <1 |
| COC1=CC(=O)[C@]2([C@@H](Cl)C[C@]34NCC[C@]23CC(=O)C(OC)=C4OC)[C@H]1O [DAURICUMIDINE] | 450 µM | > 3850 µM | 1860 µM | <1 | 4.13 |
| COC1=CC(=O)[C@@]2([C@@H]1O)[C@@H](Cl)C[C@@]13C(OC)=C(OC)C(=O)C[C@@]21CCN3C [ACUTUMINE] | > 2990 µM | > 2980 µM | > 2990 µM | – | – |
| COc1ccc(C[C@H]2c3cc(O)c(OC)cc3CCN2C)cc1O [(S)-RETICULINE] | 2140 µM | > 2990 µM | 1910 µM | <1 | <1 |
